Results from patent US12414931B1 (priority 2024, dated 2025).

Legend:
[1] = molecular target: T1, purified recombinant KGA (Homo sapiens, UniProt O94925); test: KGA activity inhibition assay, spectrophotometric (NADH production at 340 nm); format: biochemical; details: 37° C., 30 min, 5 mM glutamine
T1 construct: His6 (C); made in house; host or cells: E. coli Rosetta (DE3), pET28a(+)
T1 sequence (O94925 72-598): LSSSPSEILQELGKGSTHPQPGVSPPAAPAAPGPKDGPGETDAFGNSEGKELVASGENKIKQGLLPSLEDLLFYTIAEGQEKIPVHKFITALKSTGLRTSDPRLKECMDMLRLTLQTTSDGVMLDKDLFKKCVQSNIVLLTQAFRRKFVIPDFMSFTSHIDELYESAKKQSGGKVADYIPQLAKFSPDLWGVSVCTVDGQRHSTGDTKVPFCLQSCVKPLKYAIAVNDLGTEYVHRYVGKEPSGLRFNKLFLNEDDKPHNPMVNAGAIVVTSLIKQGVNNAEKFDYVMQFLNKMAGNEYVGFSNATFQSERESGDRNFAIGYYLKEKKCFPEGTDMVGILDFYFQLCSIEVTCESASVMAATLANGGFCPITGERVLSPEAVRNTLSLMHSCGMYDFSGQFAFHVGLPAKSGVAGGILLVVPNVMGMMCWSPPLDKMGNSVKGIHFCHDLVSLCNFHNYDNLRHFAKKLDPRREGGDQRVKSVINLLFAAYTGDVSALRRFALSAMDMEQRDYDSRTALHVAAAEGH

[2] = molecular target: T2, KGA (Homo sapiens, UniProt O94925); format: biochemical
T2 construct: His6 (C); made in house; host or cells: E. coli Rosetta (DE3), pET28a(+)
T2 sequence (O94925 72-598): T1 sequence (O94925 72-598)

[3] = molecular target: purified KGA (Homo sapiens, UniProt O94925); details: read-out: apparent binding affinity (Kd)
[4] = tested on: MCF12A cells; format: cell-based, human; details: read-out: IC50 cell viability, normal breast cells
[5] = tested on: MDA-MB-231 cells
[6] = tested on: HCC1569 cells
[7] = tested on: MDA-MB-231 cells; remark: listed apart in the source

NC(CCP(=O)(O)O)C(=O)O (stereo not shown) [AP4, 2-amino-4-phosphonobutyric acid]
half-maximal inhibitory concentration (IC50) against KGA [1]: submillimolar range

N[C@H](CC[As](=O)(O)O)C(=O)O [AST-OH, hydroxyarsinothricin]
half-maximal inhibitory concentration (IC50) against KGA [1]: submillimolar range

[N-]=[N+]=CC(=O)CC[C@H](N)C(=O)O [DON, 6-diazo-5-oxo-L-norleucine]
half-maximal inhibitory concentration (IC50) against KGA [1]: submillimolar range

NC(CC[As](O)O)C(=O)O (stereo not shown) [R-AST-OH, trivalent hydroxyarsinothricin]
IC50 ([2]; luminescent assay, 15 min preincubation with KGA, read-out: IC50 against KGA): 2 µM | fold more effective inhibitor of KGA than Rox(III) ([2]; ratio of IC50 values): 4.5 fold | fold more effective inhibitor of KGA than pentavalent AST-OH ([2]; ratio of IC50 values): 125 fold | Kd [3]: 40 µM | IC50 [4]: 75 µM | cells that lost viability ([5]; 10 µM): approximately 64% | IC50 ([5]; read-out: IC50 cell viability): 5 µM | cells that lost viability ([6]; 10 µM): ~47% | IC50 ([6]; read-out: IC50 cell viability): 3 µM | cell permeability (uptake of arsenicals) [7]: lowest permeability
